Experimental data from patent US20200181117A1, “SUBSTITUTED 3-HETEROARYLOXY-1H-PYRAZOLES AND SALTS THEREOF AND THEIR USE AS HERBICIDAL ACTIVE SUBSTANCES” (BAYER CROPSCIENCE AKTIENGESELLSCHAFT, priority 2017, published 2020).

Experiments:
Assay type in all cases: in vivo
[1] = test system: Abutilon theophrasti; test: Post-emergence herbicidal action; details: 1280 g/ha, rated visually after about 3 weeks vs untreated controls
Method: (§1) A. Post-Emergence Herbicidal Action and Crop Plant Compatibility Seeds of monocotyledonous and dicotyledonous weeds and crop plants were placed in sandy loam in plastic or wood-fiber pots, covered with soil and cultivated in a greenhouse under controlled growth conditions. 2 to 3 weeks after sowing, the test plants were treated at the one-leaf stage. The compounds of the invention, formulated in the form of wettable powders (WP) or as emulsion concentrates (EC), were then sprayed onto the green parts of the plants as aqueous suspension or emulsion with addition of 0.5% additive at a water application rate of 600 l/ha (converted). After the test plants had been kept in the greenhouse under optimum growth conditions for about 3 weeks, the activity of the preparations was rated visually in comparison to untreated controls. For example, 100% activity=the plants have died, 0% activity=like control plants. Tables B1 to B15 below show the effects of selected compounds of the general formula (I) according to Table I on various harmful plants and an application rate corresponding to 1280 g/ha, which were obtained by the experimental procedure mentioned above.

[2] = test system: Setaria viridis; test: Post-emergence herbicidal action; details: 1280 g/ha, rated visually after about 3 weeks vs untreated controls
Method: as §1

[3] = test system: Viola tricolor; test: Post-emergence herbicidal action; details: 1280 g/ha, rated visually after about 3 weeks vs untreated controls
Method: as §1

[4] = test system: Amaranthus retroflexus; test: Post-emergence herbicidal action; details: 1280 g/ha, rated visually after about 3 weeks vs untreated controls
Method: as §1

[5] = test system: Pharbitis purpurea; test: Post-emergence herbicidal action; details: 1280 g/ha, rated visually after about 3 weeks vs untreated controls
Method: as §1

[6] = test system: Polygonum convolvulus; test: Post-emergence herbicidal action; details: 1280 g/ha, rated visually after about 3 weeks vs untreated controls
Method: as §1

[7] = test system: Stellaria media; test: Post-emergence herbicidal action; details: 1280 g/ha, rated visually after about 3 weeks vs untreated controls
Method: as §1

[8] = test system: Abutilon theophrasti; test: Pre-emergence herbicidal action; details: 1280 g/ha, scored visually after about 3 weeks vs untreated controls
Text: (§2) Pre-Emergence Herbicidal Action and Crop Plant Compatibility Seeds of monocotyledonous and dicotyledonous weed plants and crop plants were placed in plastic or wood fiber pots and covered with soil. The compounds of the invention, formulated in the form of wettable powders (WP) or as emulsion concentrates (EC), were then applied onto the surface of the covering soil as aqueous suspension or emulsion with addition of 0.5% additive at a water application rate of 600 l/ha (converted). After the treatment, the pots were placed in a greenhouse and kept under good growth conditions for the test plants. After about 3 weeks, the effect of the preparations was scored visually in comparison with untreated controls as percentages. For example, 100% activity=the plants have died, 0% activity=like control plants. Tables C1 to C14 below show the effects of selected compounds of the general formula (I) according to Table I on various harmful plants and an application rate corresponding to 1280 g/ha, which were obtained by the experimental procedure mentioned above.

[9] = test system: Veronica persica; test: Pre-emergence herbicidal action; details: 1280 g/ha, scored visually after about 3 weeks vs untreated controls
Text: as §2

[10] = test system: Setaria viridis; test: Pre-emergence herbicidal action; details: 1280 g/ha, scored visually after about 3 weeks vs untreated controls
Text: as §2

[11] = test system: Viola tricolor; test: Pre-emergence herbicidal action; details: 1280 g/ha, scored visually after about 3 weeks vs untreated controls
Text: as §2

[12] = test system: Lolium rigidum; test: Pre-emergence herbicidal action; details: 1280 g/ha, scored visually after about 3 weeks vs untreated controls
Text: as §2

[13] = test system: Amaranthus retroflexus; test: Pre-emergence herbicidal action; details: 1280 g/ha, scored visually after about 3 weeks vs untreated controls
Text: as §2

[14] = test system: Alopecurus myosuroides; test: Pre-emergence herbicidal action; details: 1280 g/ha, scored visually after about 3 weeks vs untreated controls
Text: as §2

[15] = test system: Polygonum convolvulus; test: Pre-emergence herbicidal action; details: 1280 g/ha, scored visually after about 3 weeks vs untreated controls
Text: as §2

[16] = test system: Echinochloa crus-galli; test: Pre-emergence herbicidal action; details: 1280 g/ha, scored visually after about 3 weeks vs untreated controls
Text: as §2

[17] = test system: Stellaria media; test: Pre-emergence herbicidal action; details: 1280 g/ha, scored visually after about 3 weeks vs untreated controls
Text: as §2

[18] = test system: Matricaria inodora; test: Pre-emergence herbicidal action; details: 1280 g/ha, scored visually after about 3 weeks vs untreated controls
Text: as §2

[19] = test system: Hordeum murinum; test: Pre-emergence herbicidal action; details: 1280 g/ha, scored visually after about 3 weeks vs untreated controls
Text: as §2

[20] = test system: Alopecurus myosuroides; test: Post-emergence herbicidal action; details: 1280 g/ha, rated visually after about 3 weeks vs untreated controls
Method: as §1

[21] = test system: Echinochloa crus-galli; test: Post-emergence herbicidal action; details: 1280 g/ha, rated visually after about 3 weeks vs untreated controls
Method: as §1

[22] = test system: Avena fatua; test: Pre-emergence herbicidal action; details: 1280 g/ha, scored visually after about 3 weeks vs untreated controls
Text: as §2

[23] = test system: Veronica persica; test: Post-emergence herbicidal action; details: 1280 g/ha, rated visually after about 3 weeks vs untreated controls
Method: as §1

Structure (SMILES)	herbicidal activity on Abutilon theophrasti [1]	herbicidal activity on Setaria viridis [2]	herbicidal activity on Viola tricolor [3]	herbicidal activity on Amaranthus retroflexus [4]	herbicidal activity on Pharbitis purpurea [5]	herbicidal activity on Polygonum convolvulus [6]	herbicidal activity on Abutilon theophrasti [8]	herbicidal activity on Veronica persica [9]	herbicidal activity on Setaria viridis [10]	herbicidal activity on Viola tricolor [11]	herbicidal activity on Lolium rigidum [12]	herbicidal activity on Amaranthus retroflexus [13]	herbicidal activity on Alopecurus myosuroides [14]	herbicidal activity on Polygonum convolvulus [15]	herbicidal activity on Echinochloa crus-galli [16]	herbicidal activity on Stellaria media [17]	herbicidal activity on Matricaria inodora [18]	herbicidal activity on Hordeum murinum [19]	herbicidal activity on Alopecurus myosuroides [20]	herbicidal activity on Echinochloa crus-galli [21]	further results
CCc1c(Sc2ccc(F)c(F)c2)c(Oc2ncc(F)cn2)nn1C [Example I-037]	90%	100%	100%	100%	100%	80%	100%	100%	100%	100%	100%	100%	100%	100%	100%	100%	90%	90%			herbicidal activity on Stellaria media [7]: 100%
Cc1c(Sc2ccc(F)cc2F)c(Oc2ncccn2)nn1C [Example I-044, 2-[4-(2,4-Difluorophenyl)sulfanyl-1,5-dimethylpyrazol-3-yl]oxypyrimidine]	100%	100%	100%	100%	100%	100%	100%	100%	100%	100%	90%	100%	100%	90%	100%	100%	100%	90%	90%	100%	herbicidal activity on Stellaria media [7]: 100%; herbicidal activity on Avena fatua [22]: 100%
Cc1c(Sc2ccc(F)cc2)c(Oc2ncc(F)cn2)nn1C [Example I-090]	100%	100%	100%	100%		100%	100%	100%	100%	100%	90%	100%	100%	90%	100%	100%	100%	100%	100%	80%	herbicidal activity on Stellaria media [7]: 100%; herbicidal activity on Avena fatua [22]: 100%
Cc1c(Sc2cccc(Cl)c2)c(Oc2ncc(F)cn2)nn1C [Example I-091]	80%	100%	100%	80%	80%		100%	100%	100%	100%	90%	100%	100%	100%	100%	100%	100%	100%	80%	80%	herbicidal activity on Avena fatua [22]: 90%
Cc1c(Sc2cccc(F)c2)c(Oc2ncccn2)nn1C [Example I-092]	100%	100%	100%	100%	80%	100%	100%	100%	100%	90%	100%	100%	100%	90%	100%	90%	100%	100%	90%	100%	herbicidal activity on Stellaria media [7]: 100%; herbicidal activity on Avena fatua [22]: 90%
COc1cnc(Oc2nn(C)c(C)c2Sc2cccc(Cl)c2)nc1 [Example I-134]	90%		100%	100%	80%	80%	100%	100%	100%	100%	100%	100%	100%	100%	90%	100%	100%	90%	90%	80%	herbicidal activity on Avena fatua [22]: 80%
CC(C)n1cc(Sc2ccc(F)cc2)c(Oc2ncc(Cl)cn2)n1 [Example I-137]			100%	80%					100%	100%		100%		100%		100%					herbicidal activity on Veronica persica [23]: 90%
Cn1cc(Sc2ccc(Cl)cc2)c(Oc2ncc(Cl)cn2)n1 [Example I-188]				100%					100%	100%		100%			80%	90%					herbicidal activity on Veronica persica [23]: 100%
Fc1cnc(Oc2nn3c(c2Sc2ccc(F)cc2F)CCOCC3)nc1 [Example I-192]	80%		80%			100%	100%	100%	100%	100%		80%	100%	100%	100%	90%	100%	90%	80%	80%	
